Assays:
[1] = molecular target: T1, heparin-induced synthetic recombinant tau fibrils (tau-441 human) (Homo sapiens, UniProt P10636); test: Fluorescence quenching assay of compound binding to heparin-induced synthetic recombinant tau fibrils; conditions: read-out: Kd of compound binding to heparin-induced synthetic tau fibrils determined by fluorimetry
T1 construct: purchased Eurogentec
Protocol: All compounds were assessed for their ability to bind to synthetic recombinant tau fibrils using a fluorescence quenching assay[20] […] Binding affinities for some compounds (141, 164, 166, 169, 171, and 207) could not be assessed with this assay because of negligible changes in fluorescence intensity. […] This compound was then selected for further characterization and development.
All reagents and solvents were used as supplied or purified using standard procedures as necessary. Analytical separation was conducted on an Ultimate 3000 HPLC system (Thermo Scientific). [^11C]CO2 was produced via the ^14N(p,α) nuclear reaction using GE PETtrace cyclotron applying 16.5 MeV protons onto 0.5% oxygen in nitrogen gas. [^11C]Methyl iodide was synthesized on a GE Medical Systems MeI MicroLab. A F-4500 FL spectrophotometer (Chemical Engineering department, University of Cambridge) was used to do fluorescence scan of all of the compounds mixed with tau fibrils. Excitation wavelength was 365 nm, and emission was scanned from 400 to 600 nm. With parameters, setting excitation slit was 5.0 nm, emission slit was 20.0 nm, PMT voltage was 950 V, and response was 0.5 s.
Monomeric tau (tau-441 human) lyophilized powder was obtained from Eurogentec. Tau monomers (100 μM) were prepared in 20 mM BES buffer (pH 7.4 with 25 mM NaCl and 2 mM dithiothreitol and incubated at 56 °C for 10 min. After being cooled to room temperature in a water bath, heparin (25 μM) and a protease inhibitor mix were added and incubated at 37 °C for 10 days. […]
Binding affinity of all compounds with tau fibrils […]
All other compounds binding affinit ies towards tau fibrils
were then tested by fluorescent binding assay. […]

[2] = molecular target: T2, tau inclusions in brain sections from transgenic P301S tau mice (human 0N4R tau) (Homo sapiens, UniProt P10636, P618S); test: In vitro fluorescence microscopy of binding to transgenic P301S tau mouse brain sections
T2 construct: from tissue; host or cells: brain of transgenic P301S tau mice (C57Bl/6 background)
Protocol: We then screened all of the compounds for their binding to tau inclusions in brain sections from transgenic P301S tau mice, which express the shortest isoform (0N4R) of human 4-repeat (4R) tau,[18] using their autofluorescence properties to rapidly analyze their binding.
Mice were perfused with PBS followed by 4% PFA. Following 24 h in 4% PFA, the brains were transferred to 20% sucrose prior to being embedded in OCT for cryo-sectioning. Sections (14 μm) were incubated with 50 μM LM229 or PBB3 for 1 h, washed in PBS + 0.1% Triton X-100, and cover-slipped with Vectashield mounting medium. Sections were imaged using a Leica DM6000 microscope. Mouse monoclonal AT8 (MN1020) or AT100 (MN1060) were from ThermoFisher and used at 1:1000. Anti-mouse secondary antibody was conjugated to AlexaFluor647.

T2 sequence (P10636 1-383 isoform P10636-6 P243S): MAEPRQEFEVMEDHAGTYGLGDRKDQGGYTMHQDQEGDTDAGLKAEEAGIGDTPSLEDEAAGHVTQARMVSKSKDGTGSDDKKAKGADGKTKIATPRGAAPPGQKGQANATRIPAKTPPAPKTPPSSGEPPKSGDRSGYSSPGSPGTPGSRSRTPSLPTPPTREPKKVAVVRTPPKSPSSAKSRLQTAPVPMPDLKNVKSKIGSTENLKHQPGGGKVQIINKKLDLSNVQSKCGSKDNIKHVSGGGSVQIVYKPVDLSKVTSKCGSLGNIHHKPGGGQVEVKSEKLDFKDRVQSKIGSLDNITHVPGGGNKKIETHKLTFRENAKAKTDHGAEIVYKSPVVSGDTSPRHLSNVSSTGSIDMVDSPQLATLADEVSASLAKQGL
T1 sequence (P10636 1-441 isoform P10636-8): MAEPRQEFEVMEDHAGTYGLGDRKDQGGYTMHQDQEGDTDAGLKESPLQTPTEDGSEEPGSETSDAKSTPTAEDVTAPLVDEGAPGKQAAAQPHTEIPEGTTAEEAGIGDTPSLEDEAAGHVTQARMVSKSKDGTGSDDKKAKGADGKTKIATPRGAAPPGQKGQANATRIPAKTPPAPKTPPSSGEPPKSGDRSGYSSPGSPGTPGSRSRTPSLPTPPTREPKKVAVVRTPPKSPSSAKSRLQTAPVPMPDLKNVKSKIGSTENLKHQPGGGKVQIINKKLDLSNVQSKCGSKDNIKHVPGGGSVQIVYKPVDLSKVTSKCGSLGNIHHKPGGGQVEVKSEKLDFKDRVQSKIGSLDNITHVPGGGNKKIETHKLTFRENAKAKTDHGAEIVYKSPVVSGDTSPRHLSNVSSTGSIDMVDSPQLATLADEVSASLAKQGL

SMILES: CNc1ccc(/C=C/C=C/c2nc3cc(F)c(O)cc3s2)cn1 [LM229]
- Kd [1]: 3.6 nM
- Binding to P301S tau mouse brain sections, 2 months of age ([2]; 2 months old mice): Rare binding
- Binding to P301S tau mouse brain sections, 6 months of age ([2]; 6 months old mice): significant binding to large populations of neurons
- Binding to tau inclusions in P301S tau mouse brain sections ([2]; autofluorescence, co-staining with AT8 and AT100): intense, specific binding
- Binding to WT mouse brain sections ([2]; brainstem sections from WT animals): No specific binding

— paper PMC8176454, “Synthesis and Assessment of Novel Probes for Imaging Tau Pathology in Transgenic Mouse and Rat Models” (ACS Chemical Neuroscience, 2021)
